Measured values published in patent US10300065B2, “Method of treating or prevention of atherothrombotic events in patients with history of myocardial infarction” (ASTRAZENECA AB, priority 2015, dated 2019).
Where two headings read alike, the source gives them in different places.

Tests used:
platelets = conditions: either ticagrelor group
[1] = test system: patients with a history of myocardial infarction
Excerpt: Any erroneously treated patients (e.g., randomized to ticagrelor but actually given placebo) were to be accounted for in the actual treatment group.
The primary efficacy endpoint was the composite of cardiovascular death, myocardial infarction, or stroke. Secondary endpoints were cardiovascular death and all-cause mortality. The analysis of secondary endpoints proceeded in a hierarchical fashion, starting with cardiovascular death and then death from any cause. Additional endpoints listed below were evaluated on an exploratory basis. Exploratory efficacy endpoints included substituting coronary heart disease death for cardiovascular death, and the additional end points of urgent coronary revascularization, unstable angina, and transient ischemic attack. The primary safety endpoint was TIMI major bleeding. Other safety endpoints included intracranial hemorrhage (ICH) and fatal bleeding. […] A central clinical events committee whose members were unaware of the treatment assignments adjudicated all efficacy endpoints and bleeding episodes.
Safety analyses included all randomized patients who received at least one dose of study drug and for whom post-dose data were available. Patients were censored at the first of the pre-specified Common Study End Date, withdrawal of consent, or the last clinical event assessment. Safety was analyzed as on-treatment including all events occurring after first dose and within 7 days after the last dose of study drug. […] Event rates are expressed as Kaplan-Meier estimates of cumulative incidence.

[2] = 60 mg bid (N = 6958), % of patients
[3] = 60 mg bid (N = 6958), listed as ticagrelor
[4] = 60 mg bid, intention-to-treat population

## CCCSc1nc(N[C@@H]2C[C@H]2c2ccc(F)c(F)c2)c2nnn([C@@H]3C[C@H](OCCO)[C@@H](O)[C@H]3O)c2n1 [Ticagrelor, (1S,2S,3R,5S)-3-[7-{[(1R,2S)-2-(3,4-difluorophenyl)cyclopropyl]amino}-5-(propylthio)-3H-[1,2,3]-triazolo[4,5-d]pyrimidin-3-yl]-5-(2-hydroxyethoxy)cyclopentane-1,2-diol]
platelets
  VerifyNow Aspirin assay results vs placebo group: no differences
[1]; 60 mg bid
  Dyspnea, 3-year event rate: 15.8%
  Fatal bleeding: ARI (%): −0.01%
  Hypotension: 0.66 events/100 pt years
  ICH: ARI (%): 0.14%
  ICH: NNH: 714
  TIMI major bleeding: ARI (%): 1.24%
  TIMI major bleeding: NNH: 81
  frequency of death (including bleeding): 4.2%
  frequency of death, bleeding events excluded: 3.9%
  median duration of resolved dyspnea adverse events: 31 days
  patients with serum creatinine concentration increased by >50%: approximately 4%
  syncope, patients reporting: 1.2%
[1]; 60 mg bid (N = 6958)
  Adverse event leading to death: (%): (2.1) %
  Adverse event leading to death: n: 149
  Adverse event leading to discontinuation of study drug: (%): (16.1) %
  Adverse event leading to discontinuation of study drug: n: 1117
  Any adverse event: (%): (75.7) %
  Any adverse event: n: 5268
  Any serious adverse event: (%): (21.5) %
  Any serious adverse event: n: 1499
  Bleeding leading to study drug discontinuation: 3-year Kaplan-Meier estimate: (6.2) %
  Bleeding leading to study drug discontinuation: n: 355
  Bleeding requiring transfusion: 3-year Kaplan-Meier estimate: (2.10) %
  Bleeding requiring transfusion: n: 105
  Bradyarrhythmia adverse event: (%): (1.7) %
  Bradyarrhythmia adverse event: n: 121
  Dyspnea AE: (%): (14.17) %
  Dyspnea AE: n: 986
  Dyspnea SAE: (%): (0.3) %
  Dyspnea SAE: n: 22
  Dyspnea leading to study drug discontinuation: (%): (4.3) %
  Dyspnea leading to study drug discontinuation: n: 296
  Fatal Bleeding: 3-year Kaplan-Meier estimate: (0.25) %
  Fatal Bleeding: n: 11
  Fatal bleeding or non-fatal intracranial hemorrhage: 3-year Kaplan-Meier estimate: (0.63) %
  Fatal bleeding or non-fatal intracranial hemorrhage: n: 32
  Fatal bleeding: (%) patients with event: (0.2) %
  Fatal bleeding: Events/100 pt yrs: 0.08 Events/100 pt yrs
  Gout adverse event: (%): (1.4) %
  Gout adverse event: n: 97
  Intracranial Hemorrhage: 3-year Kaplan-Meier estimate: (0.61) %
  Intracranial Hemorrhage: n: 28
  Intracranial hemorrhage: (%) patients with event: (0.4) %
  Intracranial hemorrhage: Events/100 pt yrs: 0.19 Events/100 pt yrs
  Renal adverse event: (%): (2.5) %
  Renal adverse event: n: 173
  Serious adverse event leading to discontinuation of study drug: (%): (3.7) %
  Serious adverse event leading to discontinuation of study drug: n: 255
  TIMI Major bleeding: 3-year Kaplan-Meier estimate: (2.30) %
  TIMI Major bleeding: n: 115
  TIMI Major or Minor: (%) patients with event: (2.4) %
  TIMI Major or Minor: Events/100 pt yrs: 1.15 Events/100 pt yrs
  TIMI Major or Minor: n patients with event: 168
  TIMI Major: (%) patients with event: (1.7) %
  TIMI Major: Events/100 pt yrs: 0.78 Events/100 pt yrs
  TIMI Minor bleeding: 3-year Kaplan-Meier estimate: (1.18) %
  TIMI Minor bleeding: n: 55
[1]; [2]
  Non-hemorrhagic adverse reaction: Diarrhea: 3.3%
  Non-hemorrhagic adverse reaction: Dizziness: 4.5%
  Non-hemorrhagic adverse reaction: Dyspnea: 14.2%
[1]; [3]
  Bleeding leading to study drug discontinuation: 3-year Kaplan-Meier estimate: 6.2%
  Bleeding requiring transfusion: 3-year Kaplan-Meier estimate: 2.1%
  Dyspnea leading to study drug discontinuation: (%): 4.3%
  Fatal Bleeding: 3-year Kaplan-Meier estimate: 0.3%
  Intracranial Hemorrhage: 3-year Kaplan-Meier estimate: 0.6%
  TIMI Major bleeding: 3-year Kaplan-Meier estimate: 2.30%
[1]; 60 mg bid vs Placebo
  Bleeding leading to study drug discontinuation: HR: 4.31
  Bleeding requiring transfusion: HR: 3.08
  Dyspnea AE: HR: 2.82
  Dyspnea SAE: HR: 2.91
  Dyspnea leading to study drug discontinuation: HR: 6.35
  Fatal Bleeding: HR: 1.00
  Fatal bleeding or non-fatal intracranial hemorrhage: HR: 1.22
  Intracranial Hemorrhage: HR: 1.33
  TIMI Major bleeding: HR: 2.32
  TIMI Minor bleeding: HR: 3.31
[1]; 60 mg bid, intention-to-treat data
  TIMI major bleeding events per year if 10,000 patients were started on treatment versus placebo: 31
[1]; [4]
  Death: (%): (4.1) %
  Death: n: 289
  Non-Cardiovascular death: (%): (1.6) %
  Non-Cardiovascular death: n: 113
